According to PubChem BioAssay AID1963861 (Molecular Pharmacology Branch, DTP, NCI, 2024):

System: 885724-159-R-J1-PDC KRAS PDC multicell spheroid viability
Test: Anticancer human tumor 885724-159-R-J1-PDC patient-derived pancreatic adenocarcinoma cell line growth inhibition [KRAS2]
Conditions: for IC50: curve of first compound; for viability, T/C: stronger effect = lower value
In short: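 Combination screen of spheroid viability in tumor-cell co-cultures with endothelial (HUVEC) and mesenchymal stem cell stroma. Each agent was tested in half-log dilutions, topping at clinical Cmax or at 10 microM without a known Cmax.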

[1] = second compound 0.0316 µM, first compound 0.0316 µM
[2] = second compound 0.1 µM, first compound 0.0316 µM
[3] = second compound 0.316 µM, first compound 0.0316 µM
[4] = second compound 1 µM, first compound 0.0316 µM
[5] = second compound 3.16 µM, first compound 0.0316 µM
[6] = second compound 0.0316 µM, first compound 0.1 µM
[7] = second compound 0.0316 µM, first compound 0.316 µM
[8] = second compound 0.0316 µM, first compound 1 µM
[9] = second compound 0.0316 µM, first compound 3.16 µM
[10] = second compound 0.0316 µM, first compound 10 µM
[11] = second compound 0.1 µM, first compound 0.1 µM
[12] = second compound 0.1 µM, first compound 0.316 µM
[13] = second compound 0.1 µM, first compound 1 µM
[14] = second compound 0.1 µM, first compound 3.16 µM
[15] = second compound 0.1 µM, first compound 10 µM
[16] = second compound 0.316 µM, first compound 0.1 µM
[17] = second compound 0.316 µM, first compound 0.316 µM
[18] = second compound 0.316 µM, first compound 1 µM
[19] = second compound 0.316 µM, first compound 3.16 µM
[20] = second compound 0.316 µM, first compound 10 µM
[21] = second compound 1 µM, first compound 0.1 µM
[22] = second compound 1 µM, first compound 0.316 µM
[23] = second compound 1 µM, first compound 1 µM
[24] = second compound 1 µM, first compound 3.16 µM
[25] = second compound 1 µM, first compound 10 µM
[26] = second compound 3.16 µM, first compound 0.1 µM
[27] = second compound 3.16 µM, first compound 0.316 µM
[28] = second compound 3.16 µM, first compound 1 µM
[29] = second compound 3.16 µM, first compound 3.16 µM
[30] = second compound 3.16 µM, first compound 10 µM
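Also: spheroids exposed to agents for 7 days before readout.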

Compound: CC(=O)Nc1cccc(-n2c(=O)n(C3CC3)c(=O)c3c(Nc4ccc(I)cc4F)n(C)c(=O)c(C)c32)c1 + C=CC(=O)N1CCN(c2nc(OCC3CCCN3C)nc3c2CCN(c2cccc4cccc(C)c24)C3)CC1CC#N
- IC50 (second compound 0.0316 µM): 0.00133 µM
- IC50 (second compound 0.1 µM): 0.00148 µM
- IC50 (second compound 0.316 µM): 0.000933 µM
- IC50 (second compound 1 µM): 0.000625 µM
- IC50 (second compound 3.16 µM): < 0.0001 µM
- viability, T/C (second compound 0.0316 µM, first compound 0.0001 µM): 107%
- viability, T/C (second compound 0.0316 µM, first compound 0.000316 µM): 78.7%
- viability, T/C (second compound 0.0316 µM, first compound 0.001 µM): 51.3%
- viability, T/C (second compound 0.0316 µM, first compound 0.00316 µM): 38.5%
- viability, T/C (second compound 0.0316 µM, first compound 0.01 µM): 31%
- viability, T/C [1]: 20.8%
- viability, T/C (second compound 0.1 µM, first compound 0.0001 µM): 92.3%
- viability, T/C (second compound 0.1 µM, first compound 0.000316 µM): 84%
- viability, T/C (second compound 0.1 µM, first compound 0.001 µM): 54.2%
- viability, T/C (second compound 0.1 µM, first compound 0.00316 µM): 37.3%
- viability, T/C (second compound 0.1 µM, first compound 0.01 µM): 28.9%
- viability, T/C [2]: 20.4%
- viability, T/C (second compound 0.316 µM, first compound 0.0001 µM): 92.6%
- viability, T/C (second compound 0.316 µM, first compound 0.000316 µM): 74.8%
- viability, T/C (second compound 0.316 µM, first compound 0.001 µM): 45.1%
- viability, T/C (second compound 0.316 µM, first compound 0.00316 µM): 34.8%
- viability, T/C (second compound 0.316 µM, first compound 0.01 µM): 28.7%
- viability, T/C [3]: 20.4%
- viability, T/C (second compound 1 µM, first compound 0.0001 µM): 85.1%
- viability, T/C (second compound 1 µM, first compound 0.000316 µM): 64.3%
- viability, T/C (second compound 1 µM, first compound 0.001 µM): 39.5%
- viability, T/C (second compound 1 µM, first compound 0.00316 µM): 27.7%
- viability, T/C (second compound 1 µM, first compound 0.01 µM): 21.8%
- viability, T/C [4]: 18.6%
- viability, T/C (second compound 3.16 µM, first compound 0.0001 µM): 45.4%
- viability, T/C (second compound 3.16 µM, first compound 0.000316 µM): 37.8%
- viability, T/C (second compound 3.16 µM, first compound 0.001 µM): 18.8%
- viability, T/C (second compound 3.16 µM, first compound 0.00316 µM): 18.8%
- viability, T/C (second compound 3.16 µM, first compound 0.01 µM): 5.46%
- viability, T/C [5]: 8.49%

Compound: COC(=O)c1ccc2c(C(=Nc3ccc(N(C)C(=O)CN4CCN(C)CC4)cc3)c3ccccc3)c(O)[nH]c2c1 + C=CC(=O)N1CCN(c2nc(OCC3CCCN3C)nc3c2CCN(c2cccc4cccc(C)c24)C3)CC1CC#N
- IC50 (second compound 0.0316 µM): 2.08 µM
- IC50 (second compound 0.1 µM): 1.86 µM
- IC50 (second compound 0.316 µM): 1.71 µM
- IC50 (second compound 1 µM): 1.68 µM
- IC50 (second compound 3.16 µM): 0.431 µM
- viability, T/C [1]: 100%
- viability, T/C [6]: 104%
- viability, T/C [7]: 101%
- viability, T/C [8]: 94.5%
- viability, T/C [9]: 24.4%
- viability, T/C [10]: 0.81%
- viability, T/C [2]: 100%
- viability, T/C [11]: 97%
- viability, T/C [12]: 98.5%
- viability, T/C [13]: 85.1%
- viability, T/C [14]: 19.9%
- viability, T/C [15]: 0.65%
- viability, T/C [3]: 100%
- viability, T/C [16]: 100%
- viability, T/C [17]: 91.5%
- viability, T/C [18]: 83.8%
- viability, T/C [19]: 11.3%
- viability, T/C [20]: 0.77%
- viability, T/C [4]: 90.4%
- viability, T/C [21]: 91.4%
- viability, T/C [22]: 85.9%
- viability, T/C [23]: 84.5%
- viability, T/C [24]: 7.97%
- viability, T/C [25]: 0.43%
- viability, T/C [5]: 58.4%
- viability, T/C [26]: 51.1%
- viability, T/C [27]: 54.1%
- viability, T/C [28]: 38%
- viability, T/C [29]: 1.11%
- viability, T/C [30]: 0.32%

Compound: COc1cc(Nc2ncc3c(n2)-c2ccc(Cl)cc2C(c2c(F)cccc2OC)=NC3)ccc1C(=O)O + C=CC(=O)N1CCN(c2nc(OCC3CCCN3C)nc3c2CCN(c2cccc4cccc(C)c24)C3)CC1CC#N
- IC50 (second compound 0.0316 µM): > 10 µM
- IC50 (second compound 0.1 µM): > 10 µM
- IC50 (second compound 0.316 µM): > 10 µM
- IC50 (second compound 1 µM): > 10 µM
- IC50 (second compound 3.16 µM): < 0.0316 µM
- viability, T/C [1]: 103%
- viability, T/C [6]: 92.4%
- viability, T/C [7]: 87.9%
- viability, T/C [8]: 92.4%
- viability, T/C [9]: 93.1%
- viability, T/C [10]: 105%
- viability, T/C [2]: 100%
- viability, T/C [11]: 88.8%
- viability, T/C [12]: 88.9%
- viability, T/C [13]: 90.4%
- viability, T/C [14]: 99.4%
- viability, T/C [15]: 100%
- viability, T/C [3]: 89.2%
- viability, T/C [16]: 84%
- viability, T/C [17]: 83.6%
- viability, T/C [18]: 84.2%
- viability, T/C [19]: 76.6%
- viability, T/C [20]: 89%
- viability, T/C [4]: 80%
- viability, T/C [21]: 76.9%
- viability, T/C [22]: 77.8%
- viability, T/C [23]: 75.1%
- viability, T/C [24]: 75.7%
- viability, T/C [25]: 78.2%
- viability, T/C [5]: 46.9%
- viability, T/C [26]: 46.3%
- viability, T/C [27]: 42.3%
- viability, T/C [28]: 54.5%
- viability, T/C [29]: 60%
- viability, T/C [30]: 44.6%

Compound: COc1cc2nccc(Oc3ccc(NC(=O)C4(C(=O)Nc5ccc(F)cc5)CC4)cc3)c2cc1OC + C=CC(=O)N1CCN(c2nc(OCC3CCCN3C)nc3c2CCN(c2cccc4cccc(C)c24)C3)CC1CC#N
- IC50 (second compound 0.0316 µM): > 10 µM
- IC50 (second compound 0.1 µM): > 10 µM
- IC50 (second compound 0.316 µM): > 10 µM
- IC50 (second compound 1 µM): > 10 µM
- IC50 (second compound 3.16 µM): 0.43 µM
- viability, T/C [1]: 109%
- viability, T/C [6]: 114%
- viability, T/C [7]: 113%
- viability, T/C [8]: 99.5%
- viability, T/C [9]: 70.4%
- viability, T/C [10]: 69.9%
- viability, T/C [2]: 111%
- viability, T/C [11]: 108%
- viability, T/C [12]: 102%
- viability, T/C [13]: 111%
- viability, T/C [14]: 72.2%
- viability, T/C [15]: 73%
- viability, T/C [3]: 102%
- viability, T/C [16]: 111%
- viability, T/C [17]: 106%
- viability, T/C [18]: 104%
- viability, T/C [19]: 79.7%
- viability, T/C [20]: 62.7%
- viability, T/C [4]: 111%
- viability, T/C [21]: 108%
- viability, T/C [22]: 111%
- viability, T/C [23]: 102%
- viability, T/C [24]: 66.6%
- viability, T/C [25]: 59.6%
- viability, T/C [5]: 80.1%
- viability, T/C [26]: 73.7%
- viability, T/C [27]: 55%
- viability, T/C [28]: 33.7%
- viability, T/C [29]: 12.4%
- viability, T/C [30]: 0.35%
